Measurements reported in US20260132127A1, “NOVEL SPIRO COMPOUND” (MITSUBISHI TANABE PHARMA CORPORATION, priority 2021, published 2026).

The compounds below were run against T1, human TRH-DE (Homo sapiens, UniProt Q9UKU6) (assay: TRH-DE inhibition test (RapidFire MS measurement of product Cyclo (His-Pro))). Settings: membrane fraction of Expi 293 cells expressing human TRH-DE; 10 μM TRH substrate; room temperature, 2 hours; 16-point concentration test.
T1 construct: expressed in transfected cells; host or cells: Expi 293 cells (transient expression), membrane fraction
T1 sequence (Q9UKU6 1-1069): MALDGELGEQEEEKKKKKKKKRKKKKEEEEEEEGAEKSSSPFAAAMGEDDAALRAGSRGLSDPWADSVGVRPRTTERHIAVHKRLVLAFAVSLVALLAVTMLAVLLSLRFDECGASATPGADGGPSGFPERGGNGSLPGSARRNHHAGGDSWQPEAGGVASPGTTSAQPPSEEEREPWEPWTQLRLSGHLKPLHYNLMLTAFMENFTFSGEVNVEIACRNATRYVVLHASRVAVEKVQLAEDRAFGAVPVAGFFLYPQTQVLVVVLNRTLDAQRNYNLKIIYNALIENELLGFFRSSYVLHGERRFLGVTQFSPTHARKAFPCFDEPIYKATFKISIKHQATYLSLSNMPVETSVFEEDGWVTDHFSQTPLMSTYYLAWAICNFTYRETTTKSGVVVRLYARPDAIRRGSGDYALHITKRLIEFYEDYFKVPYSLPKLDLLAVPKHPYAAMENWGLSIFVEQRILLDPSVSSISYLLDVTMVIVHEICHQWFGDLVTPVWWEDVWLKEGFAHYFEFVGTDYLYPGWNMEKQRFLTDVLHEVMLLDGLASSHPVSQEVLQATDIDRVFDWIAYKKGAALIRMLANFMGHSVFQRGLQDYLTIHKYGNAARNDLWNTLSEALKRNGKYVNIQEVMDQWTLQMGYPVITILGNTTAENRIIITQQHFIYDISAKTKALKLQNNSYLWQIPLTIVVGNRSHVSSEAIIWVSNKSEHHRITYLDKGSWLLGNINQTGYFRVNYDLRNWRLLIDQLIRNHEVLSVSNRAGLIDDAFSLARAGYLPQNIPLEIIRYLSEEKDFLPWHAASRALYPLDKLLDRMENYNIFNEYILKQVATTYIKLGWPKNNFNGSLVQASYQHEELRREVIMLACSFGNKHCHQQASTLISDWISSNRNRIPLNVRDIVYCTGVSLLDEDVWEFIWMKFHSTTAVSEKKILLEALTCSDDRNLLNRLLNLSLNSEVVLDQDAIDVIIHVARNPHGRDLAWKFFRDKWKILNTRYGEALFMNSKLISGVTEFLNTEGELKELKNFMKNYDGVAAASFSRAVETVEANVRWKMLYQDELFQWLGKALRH
Assay type: biochemical
Experimental: The compounds described in “1. […] The enzyme inhibitory activity of each of the compounds was evaluated by measuring the amount of the product Cyclo (His-Pro) of the enzyme reaction using a RapidFire RF 365 HTMS system (manufactured by Agilent Technologies, Inc.) connected to a triple quadrupole mass spectrometer (API 4000, manufactured by SCIEX). A membrane fraction prepared from Expi 293 cells transiently expressing human TRH-DE was used as an enzyme. The membrane fraction was suspended in 4 μg/ml of a reaction buffer (50 mM sodium phosphate (pH 7.4), 25 mM NaCl, 0.01% Triton […], and 200 μM bacitracin) and mixed with the test compound at each concentration. 10 μM […]), which was a substrate, was added, and the mixture was reacted at room temperature for 2 hours. The reaction was stopped in the same amount of a solution of acetonitrile:methanol (1:1) containing 1 μM of the stable isotope Cyclo ([…]) as an internal standard, and the supernatant was collected after centrifugation. In the RapidFire RF 365 HTMS system, a portion of the supernatant was aspirated, loaded onto a Graphic Carbon column (manufactured by Agilent Technologies, Inc.) with a buffer A (water, 0.09% formic acid, 0.01% trifluoroacetic acid) and washed with ultrapure water. Next, washing was performed with acetonitrile. The contents in the column were eluted with a buffer B (80% acetonitrile, 0.09% formic acid, 0.01% trifluoroacetic acid) and injected into a mass spectrometer for analysis. […] The ESI voltage was set to 5,500 V and the temperature was set to 650° C. For the calculation of the inhibition rate, a Ratio value corrected by dividing the product amount by the internal standard amount was used. The inhibition rate (%) was calculated by % Inhibition={1-(Ratio value of sample-Ratio value of blank)/(Ratio value of control-Ratio value of blank)}×100. The IC50 value was calculated from the concentration reactivity test at 16 points.

Going from `CC1CCc2ncccc2C(=O)N1C1CC2(C1)CN(S(=O)(=O)c1ccccc1F)C2` (racemic) [Example 87] to `CC1CCc2ncc(F)cc2C(=O)N1C1CC2(C1)CN(S(=O)(=O)c1ccccc1F)C2` (racemic) [Example 88], the IC50 rises from 49 nM to 147 nM (3-fold).

Going from `CC1CCc2ncc(C(F)(F)F)cc2C(=O)N1C1CC2(C1)CN(S(=O)(=O)c1ccccc1F)C2` (racemic) [Example 89] to `CC1C=Cc2ncc(C(F)(F)F)cc2C(=O)N1C1CC2(C1)CN(S(=O)(=O)c1ccccc1F)C2` (racemic) [Example 115], the IC50 falls from 286 nM to 83 nM (3.4-fold).

First: CC1CCc2nc(C(F)(F)F)sc2C(=O)N1C1CC2(C1)CN(S(=O)(=O)c1ccccc1F)C2 (racemic) [Example 92]
Second: CC1CCc2sc(C(F)(F)F)nc2C(=O)N1C1CC2(C1)CN(S(=O)(=O)c1ccccc1F)C2 (racemic) [Example 98]
The IC50 of the first is 1.8-fold lower: 12 nM for the first, 21 nM for the second. The first is the more potent here.

Compared with `CC1CCc2nc(C3CC3)sc2C(=O)N1C1CC2(C1)CN(S(=O)(=O)c1ccccc1F)C2` (racemic) [Example 93], `CC1COc2nc(C3CC3)sc2C(=O)N1C1CC2(C1)CN(S(=O)(=O)c1ccccc1F)C2` (racemic) [Example 179] is 1.8-fold higher in IC50: 4 nM for the first, 7 nM for the second.

First: CC1CCc2nc(C3(F)CC3)sc2C(=O)N1C1CC2(C1)CN(S(=O)(=O)c1ccccc1F)C2 (racemic) [Example 94]
Second: CC1C=Cc2nc(C3(F)CC3)sc2C(=O)N1C1CC2(C1)CN(S(=O)(=O)c1ccccc1F)C2 (racemic) [Example 120]
The IC50 of the first is 2.8-fold lower: 4 nM for the first, 11 nM for the second.

Going from `CC1CCc2nc(C3CC3)oc2C(=O)N1C1CC2(C1)CN(S(=O)(=O)c1ccccc1F)C2` (racemic) [Example 102] to `CC1C=Cc2nc(C3CC3)oc2C(=O)N1C1CC2(C1)CN(S(=O)(=O)c1ccccc1F)C2` (racemic) [Example 129], the IC50 rises from 6 nM to 21 nM (3.5-fold).

First: CC1c2cc(C(F)(F)F)cnc2C(=O)N(C2CC3(C2)CN(S(=O)(=O)c2ccccc2F)C3)C1C (racemic) [Example 106]
Second: CC1C=Cc2cc(C(F)(F)F)cnc2C(=O)N1C1CC2(C1)CN(S(=O)(=O)c1ccccc1F)C2 (racemic) [Example 112]
The IC50 of the first is 2.3-fold lower: 14 nM for the first, 32 nM for the second. The first is the more potent here.

First: CC1CCC2CC2C(=O)N1C1CC2(C1)CN(S(=O)(=O)c1ccccc1F)C2 (racemic) [Example 107]
Second: COc1ccc2c(n1)CCC(C)N(C1CC3(C1)CN(S(=O)(=O)c1ccccc1F)C3)C2=O (racemic) [Example 249, 6-[2-(2-fluorophenyl)sulfonyl-2-azaspiro[3.3]heptan-6-yl]-2-methoxy-7-methyl-8,9-dihydro-7H-pyrido[3,2-c]azepin-5-one]
The IC50 of the first is 6.2-fold lower: 18 nM for the first, 112 nM for the second.

First: CC1C=Cc2ncccc2C(=O)N1C1CC2(C1)CN(S(=O)(=O)c1ccccc1F)C2 (racemic) [Example 113]
Second: CC1C=Cc2ncc(F)cc2C(=O)N1C1CC2(C1)CN(S(=O)(=O)c1ccccc1F)C2 (racemic) [Example 114]
The IC50 of the first is 2.3-fold lower: 26 nM for the first, 61 nM for the second. The first is the more potent here.

Going from `CC1C=Cc2nc(C(F)(F)F)sc2C(=O)N1C1CC2(C1)CN(S(=O)(=O)c1ccccc1F)C2` (racemic) [Example 118] to `CC1C=Cc2nc(C3CC3)sc2C(=O)N1C1CC2(C1)CN(S(=O)(=O)c1ccccc1F)C2` (racemic) [Example 119], the IC50 falls from 25 nM to 13 nM (1.9-fold).

First: CC1C=Cc2c(noc2C2CC2)C(=O)N1C1CC2(C1)CN(S(=O)(=O)c1ccccc1F)C2 (racemic) [Example 131]
Second: CC1c2cccnc2C(=O)N1C1CC2(C1)CN(S(=O)(=O)c1ccccc1F)C2 (racemic) [Example 291]
The IC50 of the first is 6.7-fold lower: 32 nM for the first, 215 nM for the second. The first is the more potent here.

`Cc1nc2c(s1)C(=O)N(C1CC3(C1)CN(S(=O)(=O)c1ccccc1F)C3)C(C)CO2` (racemic) [Example 174] and `CCc1nc2c(s1)C(=O)N(C1CC3(C1)CN(S(=O)(=O)c1ccccc1F)C3)C(C)CO2` (racemic) [Example 177] are within 1.5-fold of each other in IC50: 19 nM for the first, 18 nM for the second.

`CC1CSc2nc(C(F)(F)F)ccc2C(=O)N1C1CC2(C1)CN(S(=O)(=O)c1ccccc1F)C2` (racemic) [Example 259, 4-[2-(2-fluorophenyl)sulfonyl-2-azaspiro[3.3]heptan-6-yl]-3-methyl-8-(trifluoromethyl)-2,3-dihydropyrido[3,2-f][1,4]thiazepin-5-one] and `CC1c2cc(F)ccc2C(=O)N1C1CC2(C1)CN(S(=O)(=O)c1ccccc1F)C2` (racemic) [Example 269] are within 1.5-fold of each other in IC50: 152 nM for the first, 134 nM for the second.

Compared with `CC1c2ccccc2C(=O)N1C1CC2(C1)CN(S(=O)(=O)c1ccccc1)C2` (racemic) [Example 267], `CCC1c2ccccc2C(=O)N1C1CC2(C1)CN(S(=O)(=O)c1ccccc1)C2` (racemic) [Example 268] is 6.1-fold lower in IC50: 664 nM for the first, 108 nM for the second. The second is the more potent here.

Going from `CC1c2ccc(F)cc2C(=O)N1C1CC2(C1)CN(S(=O)(=O)c1ccccc1F)C2` (racemic) [Example 270] to `Cc1ccc(F)c(S(=O)(=O)N2CC3(CC(N4C(=O)c5ccccc5C4C)C3)C2)c1` (racemic) [Example 272], the IC50 falls from 189 nM to 101 nM (1.9-fold). The second is the more potent here.

First: CCC1c2ccccc2C(=O)N1C1CC2(C1)CN(S(=O)(=O)c1ccccc1F)C2 (racemic) [Example 271]
Second: CCC1c2ccccc2C(=O)N1C1CC2(C1)CN(S(=O)(=O)c1cc(C)ccc1F)C2 (racemic) [Example 273]
The IC50 of the first is 2.6-fold lower: 24 nM for the first, 63 nM for the second.

First: CCC1c2ccccc2C(=O)N1C1CC2(C1)CN(S(=O)(=O)c1cc(OC)ccc1F)C2 (racemic) [Example 274]
Second: CCC1(O)c2ccccc2C(=O)N1C1CC2(C1)CN(S(=O)(=O)c1cc(OC)ccc1F)C2 (racemic) [Example 289]
The IC50 of the first is 2.2-fold lower: 151 nM for the first, 338 nM for the second. The first is the more potent here.

`CC1(O)c2cc(F)ccc2C(=O)N1C1CC2(C1)CN(S(=O)(=O)c1ccccc1F)C2` (racemic) [Example 276] and `CC1(O)c2ccc(F)cc2C(=O)N1C1CC2(C1)CN(S(=O)(=O)c1ccccc1F)C2` (racemic) [Example 277] are within 1.5-fold of each other in IC50: 74 nM for the first, 102 nM for the second.

`CC1(O)c2cccnc2C(=O)N1C1CC2(C1)CN(S(=O)(=O)c1ccccc1F)C2` (racemic) [Example 278] and `CC1(O)c2cc(F)cnc2C(=O)N1C1CC2(C1)CN(S(=O)(=O)c1ccccc1F)C2` (racemic) [Example 279] are within 1.5-fold of each other in IC50: 146 nM for the first, 112 nM for the second.

`Cc1cnc2c(c1)C(C)(O)N(C1CC3(C1)CN(S(=O)(=O)c1ccccc1F)C3)C2=O` (racemic) [Example 280] and `COc1ccc2c(n1)C(=O)N(C1CC3(C1)CN(S(=O)(=O)c1ccccc1F)C3)C2(C)O` (racemic) [Example 281] are within 1.5-fold of each other in IC50: 89 nM for the first, 120 nM for the second.

`CC1(O)c2cnccc2C(=O)N1C1CC2(C1)CN(S(=O)(=O)c1ccccc1F)C2` (racemic) [Example 282] and `Cc1ccc(F)c(S(=O)(=O)N2CC3(CC(N4C(=O)c5ccccc5C4(C)O)C3)C2)c1` (racemic) [Example 287] are within 1.5-fold of each other in IC50: 124 nM for the first, 90 nM for the second.

Compared with `CC1(O)c2ccccc2C(=O)N1C1CC2(C1)CN(S(=O)(=O)c1ccccc1)C2` (racemic) [Example 284], `CCC1(O)c2ccccc2C(=O)N1C1CC2(C1)CN(S(=O)(=O)c1ccccc1)C2` (racemic) [Example 285] is 1.8-fold higher in IC50: 537 nM for the first, 955 nM for the second. The first is the more potent here.

Going from `CCC1(O)c2ccccc2C(=O)N1C1CC2(C1)CN(S(=O)(=O)c1ccccc1F)C2` (racemic) [Example 286] to `CCC1(O)c2ccccc2C(=O)N1C1CC2(C1)CN(S(=O)(=O)c1cc(C)ccc1F)C2` (racemic) [Example 288], the IC50 rises from 213 nM to 336 nM (1.6-fold). The first is the more potent here.
